Molecular target: T1, wild-type hTRPM3α2 (Homo sapiens, UniProt Q9HCF6)
T1 construct: host or cells: HEK293
Test: Intracellular Ca2+ assay (GCaMP6f) in 96-well plates, HEK293 cells, wild type channel
Type: cell-based
Protocol: Intracellular Ca^2+ measurements were performed using a Flexstation-3 96‐well plate reader with rapid well injection (Molecular Devices) as described earlier ([Hughes et al., 2019]) with some modifications. Briefly Human Embryonic Kidney 293 (HEK293) cells were purchased from American Type Culture Collection (ATCC), Manassas, VA, (catalogue number CRL-1573), RRID:CVCL_0045; cell identity was verified by STR analysis by ATCC. HEK293 cells were cultured in MEM supplemented with 10% FBS and 100 IU/ml penicillin plus 100 µg/ml streptomycin in 5% CO2 at 37°C. Additional cell authentication was not performed, but passage number of the cells was monitored, and cells were used up to passage number 25–30 from purchase, when a new batch of cells was thawed with low passage number; cells were tested for the lack of mycoplasma infection. HEK293 cells were transfected with hTRPM3α2-GFP, or its mutants (200 ng) and GCaMP6 (1 μg) using the Effectene reagent (Qiagen). […] GCaMP6 signal was measured at excitation wavelengths 485 nm and fluorescence emission was detected at 525 nm. Sampling interval was 0.86 s and four parallel reads were performed for each condition. […] For measurements at 37°C the MEM medium used to culture the cells was replaced with the measurement solution preheated to 37°C, and the plate was placed in the plate reader warmed to 37°C using its built-in temperature controller.

T1 sequence (Q9HCF6 1-1709 isoform Q9HCF6-5): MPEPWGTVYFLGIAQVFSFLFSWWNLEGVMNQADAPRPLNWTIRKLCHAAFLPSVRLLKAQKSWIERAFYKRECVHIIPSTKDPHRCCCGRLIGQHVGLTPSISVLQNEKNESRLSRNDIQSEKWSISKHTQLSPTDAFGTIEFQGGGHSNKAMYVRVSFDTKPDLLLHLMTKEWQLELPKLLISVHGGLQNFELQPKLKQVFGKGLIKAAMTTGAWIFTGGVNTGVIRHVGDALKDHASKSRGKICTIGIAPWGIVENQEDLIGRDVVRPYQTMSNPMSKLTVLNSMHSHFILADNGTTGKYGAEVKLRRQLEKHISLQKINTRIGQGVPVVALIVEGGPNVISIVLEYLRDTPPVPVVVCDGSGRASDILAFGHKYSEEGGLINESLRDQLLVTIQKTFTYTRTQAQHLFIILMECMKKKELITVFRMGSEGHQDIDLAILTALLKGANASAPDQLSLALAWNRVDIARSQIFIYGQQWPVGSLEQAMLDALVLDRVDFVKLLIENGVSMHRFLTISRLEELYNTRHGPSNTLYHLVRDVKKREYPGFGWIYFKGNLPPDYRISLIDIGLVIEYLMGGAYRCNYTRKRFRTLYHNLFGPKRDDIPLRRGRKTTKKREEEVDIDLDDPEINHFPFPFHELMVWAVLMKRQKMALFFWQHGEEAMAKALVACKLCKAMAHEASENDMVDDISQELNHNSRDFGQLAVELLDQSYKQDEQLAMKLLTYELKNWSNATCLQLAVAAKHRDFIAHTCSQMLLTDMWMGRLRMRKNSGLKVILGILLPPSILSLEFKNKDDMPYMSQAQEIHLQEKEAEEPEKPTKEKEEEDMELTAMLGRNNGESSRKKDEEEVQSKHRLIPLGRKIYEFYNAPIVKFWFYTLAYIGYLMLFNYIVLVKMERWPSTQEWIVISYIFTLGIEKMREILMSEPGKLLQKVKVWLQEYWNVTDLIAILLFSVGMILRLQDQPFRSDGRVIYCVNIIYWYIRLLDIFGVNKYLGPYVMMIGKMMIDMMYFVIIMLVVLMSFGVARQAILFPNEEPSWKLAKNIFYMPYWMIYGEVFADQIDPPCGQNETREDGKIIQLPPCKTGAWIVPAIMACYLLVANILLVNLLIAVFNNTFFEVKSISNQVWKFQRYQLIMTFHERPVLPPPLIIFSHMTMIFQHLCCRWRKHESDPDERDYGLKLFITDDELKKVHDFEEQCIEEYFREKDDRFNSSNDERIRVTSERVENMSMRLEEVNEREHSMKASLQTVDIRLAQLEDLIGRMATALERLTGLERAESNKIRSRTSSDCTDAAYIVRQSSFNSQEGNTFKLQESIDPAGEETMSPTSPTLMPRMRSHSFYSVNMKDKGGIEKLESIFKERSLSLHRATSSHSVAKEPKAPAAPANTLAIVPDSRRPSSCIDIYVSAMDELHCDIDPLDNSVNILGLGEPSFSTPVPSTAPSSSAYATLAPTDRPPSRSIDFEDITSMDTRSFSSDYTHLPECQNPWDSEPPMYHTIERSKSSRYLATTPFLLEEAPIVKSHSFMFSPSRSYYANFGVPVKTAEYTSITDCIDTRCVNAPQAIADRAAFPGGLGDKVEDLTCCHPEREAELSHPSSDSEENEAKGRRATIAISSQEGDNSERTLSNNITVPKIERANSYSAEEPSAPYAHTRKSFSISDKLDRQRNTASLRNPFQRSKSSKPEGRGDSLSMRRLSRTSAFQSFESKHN

CCC1(c2ccccc2)C(=O)NCNC1=O [primidone]
Effect on basal cytoplasmic Ca2+ levels (wild type TRPM3, room temperature (21°C)): no effect
Effect on basal Ca2+ levels at 37°C (wild type channels, 50 μM, 37°C): reduced basal Ca^2+ levels
